# Assay results taken from a melting point compilation (Tetko et al.; mined from patent text by program, amines drawn as free bases though some values may be those of a salt).
row,melting point [°C],SMILES
1,147 to 149,CCOC(=O)c1cccc(CSc2nc(-c3ccc(OC)cc3)c(-c3ccc(OC)cc3)[nH]2)c1
2,70,CC(C)(C)OC(=O)NCC(=O)OCCCCNc1cccc2c1C(=O)c1ccccc1C2=O
3,232 to 236,Cc1cc(=O)c(-c2ccc(Oc3ccc(Cl)cc3)cc2)c(C)n1O
4,113 to 115,CC(C)Nc1cccnc1N1CCN(C(=O)c2ccc(C(=O)NC(C)(C)CO)cc2)CC1
5,88 to 90,CON=C(C(C)=NN=Cc1ccccc1N(OC)C(=O)OC)c1ccc(F)cc1
6,172 to 174,CCOc1ccc(CC(CN2CC(=O)OC(=O)C2)N(CCN2CC(=O)OC(=O)C2)CC(=O)O)cc1 (stereo not drawn)
7,151 to 153,COc1ccc(CN2CCN(CC(=O)N3CC=C(c4cccc(C(F)(F)F)c4)n4ncc(C#N)c43)CC2)cc1
8,85 to 87,N#CNc1ccccc1-c1ccccc1
9,56,CCCCCCc1ccc2c(c1)c1cc(CCCCCC)ccc1n2CCN
10,101 to 103,CCC(C(=O)N(C)C)n1ccc(-c2ccccc2)n1 (stereo not drawn)
11,147 to 149,CCOC(=O)c1cc(C)n(-c2ccc([N+](=O)[O-])cn2)c1-c1ccccc1
12,88 to 90,CCOC(Cc1ccc(OCCN2c3ccccc3Oc3ccccc32)cc1)C(=O)OC (stereo not drawn)
13,242 to 244,Oc1ccc2cc(-c3cnc(-c4cn(Cc5ccccc5)c5ccccc45)o3)ccc2c1
14,124 to 129,CC(C)(CCCc1cccc2cncn12)CC(=O)O
15,276 to 277,CC(C)c1cc(-c2ccc(F)c3ccccc23)nc(NS(C)(=O)=O)n1
16,302 to 305,NC(=O)Cc1nn(-c2ccccn2)c2[nH]c3ccccc3c(=O)c12
17,89 to 91,Cc1ccc(C(=O)c2c(C)cc(C)cc2OCC(O)CNC(C)C)cc1 (stereo not drawn)
18,109 to 110,O=C(CO)Cc1ccc2ccccc2c1
19,220 to 223,CCCc1ccc(-c2ccc(-c3ccc(O)cc3)nn2)cc1
20,159 to 160,Cc1c(CNCC(C)(C)C)[nH]c2c(F)c(NC(=O)c3ccc(OC[C@@H]4CCCO4)cc3)ccc12
21,> 160,Nc1ccc(Oc2ccc(C3(c4ccc(Oc5ccc(N)c(O)c5)cc4)C4CC5CC(C4)CC3C5)cc2)cc1O
22,84 to 86,CCCN(CCOc1c(Cl)cccc1Cl)C1CCc2c(ccc(OCc3ccc(OC(=O)C(C)C)cc3)c2OCc2ccc(OC(=O)C(C)C)cc2)C1 (stereo not drawn)
23,152 to 155,CCCC(CCC)c1nc(-c2ccncc2)c(-c2ccc(Cl)cc2)n1CC
24,155 to 162,Nc1nc(-c2cccc3ccccc23)co1

row,melting point [°C],SMILES
1,108 to 109,CC(C)(C)c1ccc(Cn2ccc3cc(Br)ccc32)cc1
2,71.1,CC(Br)c1ccc(C(=O)c2cccs2)cc1 (stereo not drawn)
3,88 to 89,COc1cc(O)ccc1CCCc1ccc(O)cc1
4,219 to 221,COc1ccc(-c2cc(C(F)(F)F)ccc2/C=C/C(=O)Nc2ccc3[nH]ccc3c2)cn1
5,243 to 245,COc1ccc(C(C)C)cc1CN[C@H]1[C@H]2CCN(C[C@@H]2C(=O)NC(C)C(N)=O)[C@H]1C(c1ccccc1)c1ccccc1 (stereo partly drawn)
6,143 to 144,CCCn1c(=O)c2cc(C(=O)OCC)cn2c2ccccc21
7,263 to 265,O=C(O)c1cccc(-c2ncn(-c3ccc(-c4ccccc4)cc3)n2)c1
8,97 to 98,COc1ccc(C(=O)c2ccccc2NC(=O)CNC(=O)OCc2ccccc2)cc1
9,194,N#CSCCON=C(C(=O)O)c1csc(NC(c2ccccc2)(c2ccccc2)c2ccccc2)n1
10,128 to 130,O=C(O)CC[C@@H](Cc1ccc(OCc2ccccc2)cc1)NC(=O)CCCCCCc1ccccc1
11,135 to 136,Cc1cc2c(/C=C/C(=O)OCc3ccccc3)cccc2[nH]1
12,135 to 136,COC(=O)c1cc(Cl)ccc1-n1c(CCl)nc2ccccc2c1=O
13,146 to 150,N=C(N)NCCc1ccc(OCCC(c2ccc(Cl)cc2)(c2ccc(Cl)cc2)c2ccc(Cl)cc2)cc1
14,196 to 198,CC(C)n1nc(-c2sc(C(=O)NCCN3CCOCC3)nc2-c2ccccc2)ccc1=O
15,93 to 96,O=C(O)CCCCCC(=O)CCc1ccc(Cl)cc1
16,30,Cc1ccc(S(=O)(=O)OCCc2cccs2)cc1
17,190,O=c1[nH]c2ccccc2n1CCCCCCN1CCN(C(c2ccccc2)c2ccccc2)CC1
18,178 to 179,O=C(O)C(=NO)c1ccc(OCCOc2ccc3ccccc3c2)cc1
19,132 to 134,CN1CCC(c2cccc3ccc(C(=O)NCCCc4ccc(Cl)cc4)cc23)CC1
20,220 to 223,NC(=O)c1cc2ccccc2cc1NC(=S)NC(=O)c1ccccc1
21,168,COc1ccc(OC)c(S(=O)(=O)c2ccc(Cl)cc2NC(=O)N[C@@H](Cc2ccc(NC(=O)c3c(Cl)cncc3Cl)cc2)C(=O)O)c1
22,121 to 122,CCOC(=O)COc1cc(Cl)c2c(=O)c(-c3ccc(OC)cc3)coc2c1
23,85 to 88,Cc1nc2ccccc2nc1S(=O)Cc1ccccn1 (stereo not drawn)
24,207 to 209,Cc1ccc(-n2c(-c3cc(-c4ccccc4)c(N4CCOCC4)s3)nc3ccccc3c2=O)cc1

# The next lines start with the molecule.
row,SMILES,melting point [°C]
1,CC(C)(C)c1cc(NC(=O)NCc2ccc([N+](=O)[O-])cc2)cc(C(C)(C)C)c1O,240 to 241
2,O=C(c1ccc([N+](=O)[O-])cc1)N1CCSC1=S,166 to 167
3,O=C/C=C/C=C/c1ccc(OCC(F)(F)C(F)F)cc1,53 to 55
4,FC(F)(F)c1ccc(-c2cc(C(F)(F)F)n3ncc(-c4ccncc4)c3n2)cc1,261
5,CCN1c2ccccc2NC(=O)c2cscc21,201 to 202
6,CC1CCCC(C)N1NC(=O)Nc1cccc2c1C(=O)c1c-2n[nH]c1-c1ccc(N2CCNCC2)cc1 (stereo not drawn),270
7,CCOC(=O)C1=CC(OCC)(C(C)C)N(c2ccc(Cl)cc2Cl)N1 (stereo not drawn),105 to 110
8,O=C1NC(=O)C(O)(c2c[nH]c3ccc(Br)cc23)C(=O)N1,> 250
9,CCn1c(Oc2cccc(N)c2)nnc1[C@@H](C)NS(=O)(=O)c1ccc(Cl)c(Cl)c1,142 to 145
10,COc1ccc(C2=NN(C3CCN(S(=O)(=O)c4ccc(C)cc4)CC3)C(=O)C(C)(C)C2)cc1OC,161 to 164
11,CCCn1cc(C(=O)c2cccc3cc(OC)ccc23)c2ccccc21,139 to 140
12,CCOC(=O)NCC(=O)O,55 to 58
13,COC(Cc1nsc(N)n1)OC,62 to 66.5
14,O=C(O)c1ccc(-c2nc(-c3cc(Cl)sc3Cl)cs2)cc1,266 to 267
15,Cc1ccc(-n2ncc(C(=O)O)n2)cc1,209 to 211
16,CN(C)CCc1cn(S(=O)(=O)c2ccccc2)c2ccc(O)cc12,185 to 188
17,CC(=O)Nc1ccc(CBr)c(C)c1C#N,152 to 153
18,CC(=O)N[C@H]1CC[C@H](CCC(=O)O)CC1,193 to 196
19,Cc1cn(C2CC(O)C(COC(=O)Oc3ccc([N+](=O)[O-])cc3)O2)c(=O)[nH]c1=O (stereo not drawn),145 to 146
20,Cc1cc(Nc2c(C#N)cnc3cc(-c4csc(C5OCCO5)c4)ccc23)ccc1OCc1ccccn1,194 to 196
21,COc1ccc(C(=O)CC(SC(C)=O)C(=O)O)cc1OC (stereo not drawn),110 to 112
22,CC(=O)c1cc(C(C)(C)C)cc(Br)c1O,98 to 98.5
23,COc1cc2[nH]c(=O)sc2cc1OC,192 to 193
24,CCOC(=O)c1cn(-c2nc(NC(C)(C)C)c(F)cc2F)c2c(F)c(F)c(F)cc2c1=O,174 to 178
25,Cc1ccc(C23CNCC2CC3=O)cc1 (stereo not drawn),130 to 133

row,SMILES,melting point [°C]
1,NC(=O)c1nc(CN2CCOCC2)n(-c2ccc(Cl)cc2C(=O)c2ccccc2Cl)n1,165 to 167
2,CCN(CC)CCNC(=O)c1cc(Cl)c(N)cc1OCC(OC)OC,64 to 67
3,Cc1c(Nc2c(C#N)cncc2-c2coc(CN3CCN(C)CC3)c2)ccc2[nH]ccc12,129
4,OCc1ccc2c(c1)C(C(Cl)(Cl)Cl)OC(C(Cl)(Cl)Cl)O2 (stereo not drawn),134 to 136
5,Cn1ncc(N2CCCCC2)c(C=NO)c1=O,170 to 171
6,CCCCC(=NNC(N)=S)OCC,73 to 74.5
7,OC(CN1CC=C(c2ccc(Cl)cc2)CC1)c1ccc(Cc2ccc(Cl)cc2)cc1 (stereo not drawn),149 to 152
8,CCON=C(CC)C1=C(O)CC(c2ccc(C(=O)OC)cc2)CC1=O (stereo not drawn),75 to 76
9,O=C(NCC12CC3CC(CC(C3)C1)C2)c1cc(-c2ccc(Cl)cc2C(=O)O)ccc1Cl,207 to 210
10,Cc1cc(CCCOc2c(C)cc(C(=N)NO)cc2C)on1,129 to 130
11,Cn1cc(C(=O)O)c(=O)c2cc(Cl)c(N3CCNCC3)cc21,288
12,CC(C)(C)c1ccc(Sc2cccc3c2C(=O)c2c(Sc4ccc(C(C)(C)C)cc4)ccc(Sc4ccc(C(C)(C)C)cc4)c2C3=O)cc1,228 to 229
13,Cn1nc(C(C)(C)c2ccc(Cl)cc2)nc1-c1c(F)cccc1Cl,97 to 100
14,CNC(=O)c1c(NC(=O)COC)c(OC)c(C(=O)NC)c(NC(=O)COC)c1OC,275 to 276
15,O=C1C=C(c2ccccc2C(F)(F)F)CO1,49 to 50
16,CC(=O)N[C@@H](C)COc1ccc2nc(-c3ccc(OCC4CC4)c(F)c3)oc2c1,174
17,COc1ccc(S(=O)(=O)C(CC=C(C)C)(CC=C(C)C)C(=O)NO)cc1,93 to 96
18,CN1CCC(c2c[nH]c3ccc(NS(=O)(=O)c4ccc(I)cc4)cc23)CC1,> 250
19,CC1(C)CC(NC(=O)C(=O)NCCO)CC(C)(C)N1OC1CCCCC1,190 to 192
20,CC1(C)CC(C)(C)c2cc(Cl)c(O)cc21,52
21,O=C(NC(=O)c1c(F)cccc1Cl)Nc1cnc(Oc2ccc(Cl)c3c2CCCC3)c(Cl)c1,244
22,Nc1nc(O)cc(CCl)n1,195 to 197
23,CCOC(=O)c1cc2c(cn1)[nH]c1ccc(N3CCCC3)cc12,259 to 261
24,COc1nccc(C)c1NC(=O)c1cccnc1NC1CC1,151 to 152
25,Cc1cc(C)c2c(c1C)O[C@@H](C)[C@H]2c1ccc(C(C)C)cc1 (relative stereo),79 to 80
